Measurements from patent US5047397A, “Linear analogs of atrial natriuretic peptides” (California Biotechnology Inc., priority 1988, dated 1991).
*1 amine or outer side, *2 acyl side, *3 side chain or, on linkers, in order; H or OH if unused. Where a SMILES comes first, the peptide text is derived from it. Where no end group is shown, it is not given here. [ ]: non-standard residue; d: D form. The star is where a group is joined. Propanoyl(3-indol-3-yl) = O=C(CCc1c[nH]c2ccccc12)*; Butyryl(4-indol-3-yl) = O=C(CCCc1c[nH]c2ccccc12)*; Acetyl(1-naphthyloxy) = O=C(COc1cccc2ccccc12)*; Acetyl(2-naphthyloxy) = O=C(COc1ccc2ccccc2c1)*; Acetyl(2-naphthyl) = O=C(Cc1ccc2ccccc2c1)*; Fmoc = O=C(OCC1c2ccccc2-c2ccccc21)*; X1 = O=C(Cc1ccc(N[*:1])cc1)[*:2]; Cha = N[C@@H](CC1CCCCC1)C(=O)O; Cit = NC(=O)NCCC[C@H](N)C(=O)O; Nle = CCCC[C@H](N)C(=O)O; Orn = NCCC[C@H](N)C(=O)O; Inp = O=C(O)C1CCNCC1; Ava = NCCCCC(=O)O; βAla = NCCC(=O)O

Biological target: T1, specific ANP receptor sites on BASM or BAE cells (Bos taurus, UniProt P10730)
T1 construct: specific receptor sites on BASM or BAE cells; endogenous in cells; host or cells: cultured BASM and BAE cells
T1 sequence (P10730 42-537): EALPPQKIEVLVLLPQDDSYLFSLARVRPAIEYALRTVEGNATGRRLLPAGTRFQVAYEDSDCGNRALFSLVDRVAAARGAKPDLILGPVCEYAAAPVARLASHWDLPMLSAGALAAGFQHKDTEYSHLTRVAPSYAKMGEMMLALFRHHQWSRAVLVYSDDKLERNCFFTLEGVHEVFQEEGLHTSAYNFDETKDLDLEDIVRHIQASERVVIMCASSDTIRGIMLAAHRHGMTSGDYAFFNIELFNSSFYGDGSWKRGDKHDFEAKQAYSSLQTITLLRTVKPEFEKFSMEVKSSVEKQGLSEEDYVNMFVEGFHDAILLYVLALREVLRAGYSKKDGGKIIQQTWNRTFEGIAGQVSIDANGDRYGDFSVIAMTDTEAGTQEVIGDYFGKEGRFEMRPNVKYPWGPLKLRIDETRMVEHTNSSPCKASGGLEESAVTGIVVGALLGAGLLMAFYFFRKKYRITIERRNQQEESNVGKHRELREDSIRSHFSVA
Experiment: Competitive displacement receptor binding of (125I)-rANP(126-150) on cultured cells
Parameters: species or system bovine
Details: for Ki(app): concentration of unlabeled peptide displacing 50% of maximal binding of 0.5 nM (125I)-rANP(126-150), BASM or BAE cells
Text: Analogous "competitive displacement" receptor binding assays are considered commonplace in the art for examining specific ligand-receptor interactions.
Assuming these ANP analogs act at one or more ANP receptor sites, then increased receptor affinity should reflect increased biological potency.

Compound | Ki(app) | receptor binding / activity as judged by Ki, in words
CC[C@H](C)[C@H](NC(=O)[C@H](CCCCN)NC(=O)[C@H](CC(=O)O)NC(=O)[C@@H](NC(=O)[C@H](CCCNC(=N)N)NC(=O)Cc1ccc(NC(=O)Cc2ccc3ccccc3c2)cc1)[C@@H](C)CC)C(N)=O [AP799] ({Acetyl(2-naphthyl)}-[X1]RIDKI-NH2) | 3.6 nM | 
CC[C@H](C)[C@H](NC(=O)[C@H](CCCNC(=N)N)NC(=O)[C@H](CC(=O)O)NC(=O)[C@@H](NC(=O)[C@H](CCCNC(=N)N)NC(=O)[C@@H](C)NC(=O)CNC(=O)[C@H](Cc1ccccc1)NC(=O)[C@H](C)N)[C@@H](C)CC)C(=O)NCC(=O)N[C@@H](C)C(N)=O [AP157, A--F--G--A^ --R--I--D--R--I--G--A--NH2] (H-AFG[dA]RIDRIGA-NH2) | 5.90 nM | 
CC[C@H](C)[C@H](NC(=O)[C@H](CCCNC(=N)N)NC(=O)[C@H](CC(=O)O)NC(=O)[C@@H](NC(=O)[C@H](CCCNC(=N)N)NC(=O)CNC(=O)CNC(=O)CCc1c[nH]c2ccccc12)[C@@H](C)CC)C(=O)NCC(=O)N[C@@H](C)C(N)=O [AP313, (IP)--G--G--R--I--D--R--I--G--A--NH2] ({Propanoyl(3-indol-3-yl)}-GGRIDRIGA-NH2) | 4.52 nM | 
CC[C@H](C)[C@H](NC(=O)[C@H](CCCNC(=N)N)NC(=O)CNC(=O)CNC(=O)[C@H](Cc1ccccc1)NC(=O)[C@H](C)N)C(=O)N[C@@H](CC(=O)O)C(=O)N[C@H](CCCNC(=N)N)C(=O)N[C@H](C(=O)NCC(=O)N[C@@H](C)C(N)=O)[C@@H](C)CC [AP304, A--F--G--G--R--I--D--R^ --I--G--A--NH2] (H-AFGGRID[dR]IGA-NH2) | 95.6 nM | 
CC[C@H](C)[C@H](NC[C@H](CCCCN)NC(=O)[C@H](CC(=O)O)NC(=O)[C@@H](NC(=O)[C@H](CCCNC(=N)N)NC(=O)Cc1ccc(NC(=O)Cc2ccc3ccccc3c2)cc1)[C@@H](C)CC)C(N)=O [AP807] | 112 nM | 
CC[C@H](C)[C@H](NC(=O)[C@H](CCC(N)=O)NC(=O)[C@H](CC(=O)O)NC(=O)[C@@H](NC(=O)[C@H](CCCNC(=N)N)NC(=O)CNC(=O)CNC(=O)Cc1ccc2ccccc2c1)[C@@H](C)CC)C(N)=O [AP351, (2-NA)--G--G--R--I--D--Q--I--NH2] ({Acetyl(2-naphthyl)}-GGRIDQI-NH2) | 20.0 nM | 
CCCC[C@H](NC(=O)CNC(=O)CNC(=O)Cc1ccc2ccccc2c1)C(=O)N[C@H](C(=O)N[C@@H](CC(=O)O)C(=O)N[C@@H](CCCNC(=N)N)C(=O)N[C@H](C(N)=O)[C@@H](C)CC)[C@@H](C)CC [AP514, (2-NA)--G--G--Nle--I--D--R--I--NH2] ({Acetyl(2-naphthyl)}-GG[Nle]IDRI-NH2) | 267.0 nM | very low, if any, activity
FGGRIDRIGA-NH2 [AP126, F--G--G--R--I--D--R--I--G--A--NH2] | 2.16 nM | 
GGRIDRIGAA-NH2 [AP105, G--G--R--I--D--R--I--G--A--A--NH2] | > 200 nM | do not
CC[C@H](C)[C@H](NC(=O)[C@H](CCCNC(=N)N)NC(=O)[C@H](CC(=O)O)NC(=O)[C@@H](NC[C@H](CCCCN)NC(=O)Cc1ccc(NC(=O)Cc2ccc3ccccc3c2)cc1)[C@@H](C)CC)C(N)=O [AP806] | 14.0 nM | 
CC[C@H](C)[C@H](NC(=O)[C@H](CCCNC(=N)N)NC(=O)[C@H](CC(=O)O)NC(=O)[C@@H](NC(=O)[C@H](CCCNC(=N)N)NC(=O)CNC(=O)CNC(=O)COc1ccc2ccccc2c1)[C@@H](C)CC)C(=O)NCC(=O)N[C@@H](C)C(N)=O [AP318, (2-NOA)--G--G--R--I--D--R--I--G--A--NH2] ({Acetyl(2-naphthyloxy)}-GGRIDRIGA-NH2) | 8.7 nM | 
CC[C@H](C)[C@H](NC(=O)[C@H](CCCNC(=N)N)NC(=O)[C@H](CC(=O)O)NC(=O)[C@H](CC1CCCCC1)NC(=O)[C@H](CCCNC(=N)N)NC(=O)CNC(=O)CNC(=O)Cc1ccc2ccccc2c1)C(N)=O [AP527, (2-NA)--G--G--R--Cha--D--R--I--NH2] ({Acetyl(2-naphthyl)}-GGR[Cha]DRI-NH2) | 22.5 nM | 
CC[C@H](C)[C@H](NC(=O)[C@H](CCCNC(=N)N)NC(=O)[C@H](CC(=O)O)NC(=O)[C@@H](NC(=O)[C@@H](CCCNC(=N)N)NC(=O)CNC(=O)CNC(=O)[C@H](Cc1ccccc1)NC(=O)[C@H](C)N)[C@@H](C)CC)C(=O)NCC(=O)N[C@@H](C)C(N)=O [AP301, A--F--G--G--R^ --I--D--R--I--G--A--NH2] (H-AFGG[dR]IDRIGA-NH2) | > 200 nM | 
CC[C@H](C)[C@H](NC(=O)[C@H](CCCNC(=N)N)NC(=O)[C@H](CC(=O)O)NC(=O)[C@@H](NC(=O)[C@H](CCCNC(=N)N)NC(=O)CNC(=O)CCCc1c[nH]c2ccccc12)[C@@H](C)CC)C(=O)NCC(=O)N[C@@H](C)C(N)=O [AP597, (3-IB)--G--R--I--D--R--I--G--A--NH2] ({Butyryl(4-indol-3-yl)}-GRIDRIGA-NH2) | 9.3 nM | 
CC[C@H](C)[C@H](NC(=O)[C@H](CCCN)NC(=O)[C@H](CC(=O)O)NC(=O)[C@@H](NC(=O)[C@H](CCCNC(=N)N)NC(=O)CNC(=O)CNC(=O)Cc1ccc2ccccc2c1)[C@@H](C)CC)C(N)=O [AP592, (2-NA)--G--G--R--I--D--Orn--I--NH2] ({Acetyl(2-naphthyl)}-GGRID[Orn]I-NH2) | 25.0 nM | 
CC[C@H](C)[C@H](NC(=O)[C@H](CCCNC(=N)N)NC(=O)[C@H](CC(=O)O)NC(=O)[C@@H](NC(=O)[C@H](CCCNC(=N)N)NC(=O)CNC(=O)CNC(=O)COc1cccc2ccccc12)[C@@H](C)CC)C(N)=O [AP316, (1-NOA)--G--G--R--I--D--R--I--NH2] ({Acetyl(1-naphthyloxy)}-GGRIDRI-NH2) | 50.4 nM | 
CC[C@H](C)[C@H](NC(=O)[C@H](CCCNC(=N)N)NC(=O)[C@H](CC(=O)O)NC(=O)[C@@H](NC(=O)[C@H](CCCNC(=N)N)NC(=O)CCNC(=O)CCCc1c[nH]c2ccccc12)[C@@H](C)CC)C(=O)NCC(=O)N[C@@H](C)C(N)=O [AP532, (3-IB)--beta--Ala--R--I--D--R--I--G--A--NH2)] ({Butyryl(4-indol-3-yl)-βAla}-RIDRIGA-NH2) | 11.95 nM | 
CC[C@H](C)[C@H](NC(=O)[C@H](CCCNC(=N)N)NC(=O)[C@H](CC(=O)O)NC(=O)[C@@H](NC(=O)[C@H](CCCNC(=N)N)NC(=O)CNC(=O)CNC(=O)OCC1c2ccccc2-c2ccccc21)[C@@H](C)CC)C(=O)NCC(=O)N[C@@H](C)C(N)=O [AP312, (FMOC)--G--G--R--I--D--R--I--G--A--NH2] (Fmoc-GGRIDRIGA-NH2) | 6.27 nM | 
CC[C@H](C)[C@H](NC(=O)[C@H](CCCNC(=N)N)NC(=O)CNC(=O)CNC(=O)Cc1ccc2ccccc2c1)C(=O)N[C@@H](CC(=O)O)C(=O)N[C@@H](CCCNC(=N)N)C(=O)N[C@H](C(N)=O)C(C)C [AP333, (2-NA)--G--G--R--I--D--R--V--NH2] ({Acetyl(2-naphthyl)}-GGRIDRV-NH2) | 106.4 nM | 
CC[C@H](C)[C@H](NC(=O)[C@H](CCCNC(=N)N)NC(=O)[C@H](CC(=O)O)NC(=O)[C@@H](NC(=O)[C@H](CCCNC(=N)N)NC(=O)C1CCN(C(=O)COc2ccc3ccccc3c2)CC1)[C@@H](C)CC)C(N)=O [AP793] ({Acetyl(2-naphthyloxy)-Inp}-RIDRI-NH2) | 76.8 nM | 
CC[C@H](C)[C@H](NC(=O)[C@H](CCCNC(=N)N)NC(=O)[C@H](CC(=O)O)NC(=O)[C@@H](NC(=O)[C@H](CCCNC(=N)N)NC(=O)CCCCNC(=O)COc1ccc2ccccc2c1)[C@@H](C)CC)C(N)=O [AP307, (2-Naphthoxyacetyl)-NH(CH2)4 CO-R-I-D-R-I-NH2] ({Acetyl(2-naphthyloxy)-Ava}-RIDRI-NH2) | 39.9 nM | 
YAFGGRIDRIGA-NH2 [AP175, Y--A--F--G--G--R--I--D--R--I--G--A--NH2] | 5.94 nM | 
CC[C@H](C)[C@H](NC(=O)[C@H](CCCNC(=N)N)NC(=O)[C@H](CC(=O)O)NC(=O)[C@@H](NC(=O)[C@H](CCCCN)NC(=O)Cc1ccc(NC(=O)Cc2ccc3ccccc3c2)cc1)[C@@H](C)CC)C(N)=O [AP800] ({Acetyl(2-naphthyl)}-[X1]KIDRI-NH2) | 2.90 nM | 
CC[C@H](C)[C@H](NC(=O)[C@H](CCCNC(N)=O)NC(=O)[C@H](CC(=O)O)NC(=O)[C@@H](NC(=O)[C@H](CCCNC(=N)N)NC(=O)CNC(=O)CNC(=O)Cc1ccc2ccccc2c1)[C@@H](C)CC)C(N)=O [AP593, (2-NA)--G--G--R--I--D--Cit--I--NH2] ({Acetyl(2-naphthyl)}-GGRID[Cit]I-NH2) | 55.0 nM | 
CC[C@H](C)[C@H](NC(=O)[C@H](CO)NC(=O)[C@H](CC(=O)O)NC(=O)[C@@H](NC(=O)[C@H](CCCNC(=N)N)NC(=O)CNC(=O)CNC(=O)Cc1ccc2ccccc2c1)[C@@H](C)CC)C(N)=O [AP516, (2-NA)--G--G--R--I--D--S--I--NH2] ({Acetyl(2-naphthyl)}-GGRIDSI-NH2) | 399 nM | very low, if any, activity
CC[C@H](C)[C@H](NC(=O)[C@H](CCCNC(=N)N)NC(=O)[C@H](CC(=O)O)NC(=O)[C@@H](NC(=O)[C@H](C)NC(=O)CNC(=O)CNC(=O)Cc1ccc2ccccc2c1)[C@@H](C)CC)C(N)=O [AP338, (2-NA)--G--G--A--I--D--R--I--NH2] ({Acetyl(2-naphthyl)}-GGAIDRI-NH2) | 82.6 nM | 
